Laboratory results reported in patent US20130259884A1, “PEPTIDES” ([…] SL, priority 2010, published 2013).
Where a SMILES comes first, the peptide text is derived from it.

test: Water solubility of peptides when preparing stock solutions; assay type: physicochemical; conditions: stock solution in sterile distilled water or 100% DMSO; read-out: solubility of peptide (water soluble or water insoluble, dissolved in DMSO)
Method: For challenge, peptides were administered as follows: • Individual peptides (soluble). Individual water soluble peptides were dissolved as 10, 5 or 2.5 mg/ml stock solutions in sterile distilled water. Before use, each peptide was diluted in water to 2 mg/ml and 10 μl of this 2 mg/ml mix was added to 990 μl of media. Then 100 μl of this peptide/media mix was added to 100 μl of media containing 350,000 PBMC in an ELISPOT anti-IL-4 coated cell culture plate well for a final peptide concentration of 10 μg/ml. Identically diluted media only was added to the cells and used for the no peptide media control wells (media only). • Individual peptides (DMSO). Individual water insoluble peptides were dissolved in 100% DMSO to a stock concentration of 50 mg/ml. Before use each peptide was diluted in water to 2 mg/ml and then 10 μl of the 2 mg/ml mix was added to 990 μl of cell-culture media. Then 100 μl of this peptide/media mix was added to 100 μl of media containing 350,000 PBMC in an ELISPOT anti-IL-4 coated cell culture plate well for a final peptide concentration of 10 μg/ml. Identically diluted media only was added to the cells and used for the no peptide media control wells (media only). • A combination preparation containing Alt a 1 soluble peptides (33.2, 34.3, 35.4, 35.5, 37.3.1, 37.4.1, L6-5.01, L10-1.01, L10-2.01, L10-3), called Alt a 1 Sol. Each peptide was diluted from water stock to 2 mg/ml in sterile distilled water. Then 10 μl of each peptide required for the combined preparation was mixed and brought up to 1 ml in media. Then 100 μl of this peptide/media mix was added to 100 μl of media containing 350,000 PBMC in an ELISPOT anti-IL-4 coated cell culture plate well for a final concentration of each peptide of 10 μg/ml. Identically diluted media only was used for the no peptide control wells (media only). • A combination preparation containing Alt a 1 DMSO peptides (32.2.1, 38.2.1, 35.2, 35.3, L6-2, L6-3, L6-4, 38.3, 37.2), called Alt a 1 DMSO. Each peptide was diluted from DMSO stock to 2 mg/ml in sterile distilled water. Then 10 μl of each peptide required for the combined preparation was mixed and brought up to 1 ml in media. Then 100 μl of this peptide/media mix is added to 100 μl of media containing 350,000 PBMC in an ELISPOT anti-IL-4 coated cell culture plate well for a final concentration of each peptide of 10 μg/ml. Identically diluted media only was used for the no peptide control wells (media only). • A combination preparation containing non-Alt a 1 soluble peptides (40.2, 41.2, 43.2, 44.2, 46.2, 47.2.1, 56.2, 57.2.1, 60.2, 62.2.1, 67.2, 71.3), called Alt a Other Sol. Each peptide was diluted from water stock to 2 mg/ml in sterile distilled water. Then 10 μl of each peptide required for the combined preparation was mixed and brought up to 1 ml in media, Then 100 μl of this peptide/media mix was added to 100 μl of media containing 350,000 PBMC in an ELISPOT anti-IL-4 coated cell culture plate well for a final concentration of each peptide at 10 μg/ml. Identically diluted media only was used for the no peptide control wells (media only). • A combination preparation containing non-Alt a 1 DMSO peptides (39.2, 42.2, 45.2, 48.2.1, 50.2, 51.2.1, 61.2.1, 66.3.1, 68.2.1, 70.2, 71.2, 72.2), called Alt a Other DMSO. Each peptide was diluted from DMSO stock to 2 mg/ml in sterile distilled water. Then 10 ul of each peptide required for the combined preparation was mixed and brought up to 1 ml in media, Then 100 μl of this peptide/media mix was added to 100 μl of media containing 350,000 PBMC in an ELISPOT anti-IL-4 coated cell culture plate well for a final concentration of each peptide at 10 μg/ml. Identically diluted media only was used for the no peptide control wells (media only).

Row | Structure (SMILES) | solubility [µg/mL]
1 | CC(C)C[C@H](NC(=O)[C@@H](NC(=O)CNC(=O)[C@@H](NC(=O)[C@H](CO)NC(=O)[C@@H](NC(=O)[C@H](Cc1ccccc1)NC(=O)[C@@H](NC(=O)CNC(=O)[C@H](C)N)C(C)C)C(C)C)[C@@H](C)O)[C@@H](C)O)C(=O)NCC(=O)NCC(=O)NCC(=O)N[C@@H](CCC(N)=O)C(=O)N[C@@H](CCC(=O)O)C(=O)O [Peptide 45.2, AGVFVSTGTLGGGQE] (H-AGVFVSTGTLGGGQE-OH) | < 2500
2 | CC[C@H](C)[C@H](NC(=O)[C@H](Cc1ccc(O)cc1)NC(=O)[C@H](C)NC(=O)[C@H](CC(=O)O)NC(=O)[C@H](C)NC(=O)[C@@H](N)C(C)C)C(=O)N[C@H](C(=O)N[C@@H](CC(C)C)C(=O)N[C@H](C(=O)N[C@H](C(=O)N[C@@H](CC(C)C)C(=O)N1CCC[C@H]1C(=O)N[C@@H](CCCCN)C(=O)N[C@@H](CO)C(=O)N[C@@H](CO)C(=O)O)[C@@H](C)O)C(C)C)[C@@H](C)O [Peptide 38.3, VADAYITLVTLPKSS] | < 2500
3 | CC[C@H](C)[C@H](NC(=O)[C@H](CCC(N)=O)NC(=O)CNC(=O)[C@H](CO)NC(=O)[C@H](CCCNC(=N)N)NC(=O)[C@H](CC(C)C)NC(=O)CNC(=O)[C@@H](NC(=O)[C@@H](NC(=O)[C@@H](NC(=O)[C@H](CC(=O)O)NC(=O)[C@H](C)N)[C@@H](C)CC)C(C)C)C(C)C)C(=O)N[C@@H](CCCCN)C(=O)N[C@H](C(=O)NCC(=O)O)[C@@H](C)O [Peptide 44.2, ADIVVGLRSGQIKTG] (H-ADIVVGLRSGQIKTG-OH) | > 2500
4 | CC[C@H](C)[C@H](NC(=O)[C@@H](N)CC(=O)O)C(=O)N[C@H](C(=O)N[C@@H](Cc1ccc(O)cc1)C(=O)N[C@H](C(=O)N[C@@H](C)C(=O)N[C@H](C(=O)N[C@@H](C)C(=O)N[C@H](C(=O)N[C@@H](CC(C)C)C(=O)N1CCC[C@H]1C(=O)N[C@@H](CC(N)=O)C(=O)N[C@@H](Cc1ccc(O)cc1)C(=O)N[C@H](C(=O)N[C@@H](CCCNC(=N)N)C(=O)O)C(C)C)[C@@H](C)O)[C@@H](C)O)C(C)C)[C@@H](C)O [Peptide 37.3.1, DITYVATATLPNYVR] (H-DITYVATATLPNYVR-OH) | > 2500
5 | CC(C)C[C@H](NC(=O)[C@H](C)NC(=O)[C@H](CCCNC(=N)N)NC(=O)[C@H](C)N)C(=O)N[C@@H](CCCNC(=N)N)C(=O)N[C@@H](CCCNC(=N)N)C(=O)N[C@@H](CC(C)C)C(=O)N[C@@H](CCCNC(=N)N)C(=O)N[C@H](C(=O)N[C@@H](C)C(=O)N[C@@H](CS)C(=O)N[C@@H](CCC(=O)O)C(=O)N[C@@H](CCCNC(=N)N)C(=O)N[C@@H](C)C(=O)N[C@@H](CCCCN)C(=O)O)[C@@H](C)O [Peptide 41.2, ARALRRLRTACERAK] (H-ARALRRLRTACERAK-OH; N-terminus and C-terminus assumed) | > 2500
6 | CC[C@H](C)[C@H](NC(=O)[C@H](Cc1c[nH]cn1)NC(=O)CNC(=O)[C@H](CO)NC(=O)[C@H](CC(C)C)NC(=O)[C@H](CO)NC(=O)[C@H](CO)NC(=O)[C@@H](NC(=O)[C@@H](NC(=O)[C@@H](NC(=O)[C@H](CC(C)C)NC(=O)[C@H](CO)NC(=O)CNC(=O)[C@@H](N)[C@@H](C)O)C(C)C)[C@@H](C)CC)[C@@H](C)O)C(=O)N[C@@H](C)C(=O)O [Peptide 47.2.1, TGSLVITSSLSGHIA] (H-TGSLVITSSLSGHIA-OH) | > 2500
7 | CC[C@H](C)[C@H](NC(=O)[C@H](CC(N)=O)NC(=O)[C@H](Cc1ccccc1)NC(=O)CNC(=O)[C@H](CC(C)C)NC(=O)[C@H](CO)NC(=O)[C@H](CC(N)=O)NC(=O)[C@H](Cc1ccc(O)cc1)NC(=O)[C@H](Cc1ccc(O)cc1)NC(=O)[C@@H](NC(=O)CN)[C@@H](C)O)C(=O)N[C@@H](CCCCN)C(=O)N[C@@H](C)C(=O)N[C@H](C(=O)N[C@@H](CC(N)=O)C(=O)O)[C@@H](C)O [Peptide L6-4, GTYYNSLGFNIKATN] (H-GTYYNSLGFNIKATN-OH) | < 2500
8 | CC[C@H](C)[C@H](NC(=O)[C@@H](NC(=O)[C@@H](NC(=O)[C@H](CC(C)C)NC(=O)[C@H](CCCCN)NC(=O)[C@H](CO)NC(=O)[C@@H](N)CC(C)C)C(C)C)[C@@H](C)O)C(=O)N[C@@H](C)C(=O)N[C@@H](CCCCN)C(=O)N[C@H](C(=O)N[C@@H](CC(=O)O)C(=O)N[C@@H](C)C(=O)N[C@H](C(=O)N[C@@H](CC(C)C)C(=O)N[C@@H](CC(N)=O)C(=O)O)[C@@H](C)O)C(C)C [Peptide 56.2, LSKLVTIAKVDATLN] (H-LSKLVTIAKVDATLN-OH) | > 2500
9 | CC[C@H](C)[C@H](NC(=O)[C@@H](NC(=O)[C@@H](NC(=O)[C@H](Cc1ccccc1)NC(=O)[C@H](CCC(N)=O)NC(=O)[C@@H](N)CC(C)C)[C@@H](C)O)[C@@H](C)O)C(=O)N[C@@H](C)C(=O)N[C@@H](CO)C(=O)N[C@@H](CC(C)C)C(=O)N[C@@H](Cc1ccccc1)C(=O)N[C@@H](C)C(=O)N[C@@H](C)C(=O)N[C@@H](C)C(=O)NCC(=O)N[C@@H](CC(C)C)C(=O)O [Peptide 32.2.1, LQFTTIASLFAAAGL] (H-LQFTTIASLFAAAGL-OH) | < 2500
10 | CC[C@H](C)[C@H](NC(=O)[C@H](CC(N)=O)NC(=O)[C@H](Cc1ccccc1)NC(=O)CNC(=O)[C@H](CC(C)C)NC(=O)[C@@H](N)CO)C(=O)N[C@@H](CCCCN)C(=O)N[C@@H](C)C(=O)N[C@H](C(=O)N[C@@H](CC(N)=O)C(=O)NCC(=O)NCC(=O)N[C@H](C(=O)N[C@@H](CC(C)C)C(=O)N[C@@H](CC(=O)O)C(=O)O)[C@@H](C)O)[C@@H](C)O [Peptide 35.4, SLGFNIKATNGGTLD] (H-SLGFNIKATNGGTLD-OH) | > 2500
11 | CC[C@H](C)[C@H](NC(=O)[C@H](CCC(=O)O)NC(=O)[C@H](CC(=O)O)NC(=O)[C@@H]1CCCN1)C(=O)N[C@@H](CCC(N)=O)C(=O)NCC(=O)N[C@@H](Cc1ccccc1)C(=O)N1CCC[C@H]1C(=O)N[C@H](C(=O)N[C@H](C(=O)N[C@@H](CCCCN)C(=O)N[C@@H](CC(C)C)C(=O)N[C@@H](Cc1ccccc1)C(=O)N1CCC[C@H]1C(=O)N[C@@H](C)C(=O)O)[C@@H](C)CC)[C@@H](C)O [Peptide 43.2, PDEIQGFPTIKLFPA] (H-PDEIQGFPTIKLFPA-OH) | > 2500
12 | CC(C)C[C@H](NC(=O)[C@H](CC(N)=O)NC(=O)[C@H](C)NC(=O)[C@H](CC(C)C)NC(=O)[C@H](CC(C)C)NC(=O)[C@H](CO)NC(=O)[C@H](Cc1ccccc1)NC(=O)[C@H](C)NC(=O)[C@@H](NC(=O)[C@H](CCCCN)NC(=O)[C@H](Cc1ccc(O)cc1)NC(=O)CNC(=O)[C@H](CC(C)C)NC(=O)[C@@H]1CCCN1C(=O)[C@@H](N)C(C)C)[C@@H](C)O)C(=O)O [Peptide 66.3.1, VPLGYKTAFSLLANL] (H-VPLGYKTAFSLLANL-OH) | < 2500
13 | CC(C)C[C@H](NC(=O)[C@H](C)NC(=O)[C@H](CCCCN)NC(=O)[C@H](CC(C)C)NC(=O)[C@H](CCCCN)NC(=O)[C@H](CCC(N)=O)NC(=O)[C@H](Cc1ccc(O)cc1)NC(=O)[C@@H](NC(=O)[C@H](CCC(=O)O)NC(=O)[C@H](C)N)C(C)C)C(=O)N[C@@H](C)C(=O)N[C@@H](CCCCN)C(=O)N[C@@H](CCCCN)C(=O)N[C@H](C(=O)N[C@@H](Cc1ccc(O)cc1)C(=O)O)[C@@H](C)O [Peptide 60.2, AEVYQKLKALAKKTY] (H-AEVYQKLKALAKKTY-OH) | > 2500
14 | CC(C)C[C@H](NC(=O)[C@@H]1CCCN1C(=O)[C@H](C)NC(=O)[C@H](C)NC(=O)[C@H](C)NC(=O)[C@H](C)NC(=O)[C@H](CC(C)C)NC(=O)CNC(=O)[C@H](C)NC(=O)[C@H](C)NC(=O)[C@H](C)NC(=O)[C@H](Cc1ccccc1)NC(=O)[C@H](CC(C)C)NC(=O)[C@H](CO)NC(=O)[C@H](C)N)C(=O)O [Peptide L6-3, ASLFAAAGLAAAAPL] (H-ASLFAAAGLAAAAPL-OH) | < 2500
